How the values were obtained:
[1] = Unbound fraction by rapid equilibrium dialysis, rat plasma; format: in vitro ADME
Description: (§1) To investigate the metabolic interaction potential between DUT and KET, the disappearance of DUT (5 μM) in RLM and HLM was determined under the absence and presence of KET at various concentrations ranging from 1 to 5000 nM. A microsomal reaction mixture was prepared as follows (total volume: 0.2 mL): 1 mM NADPH, 10 mM MgCl2, substrate (DUT), and inhibitor (KET), RLM or HLM (1 mg/mL), and 50 mM phosphate buffer. At 0 and 90 min after starting the metabolic reaction, a 50 μL aliquot of microsomal incubation mixture was sampled and immediately transferred into a clean 1.5 mL microcentrifuge tube containing 100 μL cold ACN with an internal standard (celecoxib at 400 ng/mL) to stop the metabolic reaction. After vortex mixing and centrifugation at 15,000× g for 10 min, a 100 μL aliquot of the supernatant was stored at −80 °C. The unbound fractions of DUT in rat plasma, RLM, human plasma, and HLM were measured using a rapid equilibrium dialysis (RED) device (Thermo Fisher Scientific, Inc., Waltham, MA, USA) as described in a previous study. […] The fraction unbound was calculated as the ratio of the drug concentrations in the “buffer” chamber to those in the “sample” chamber. The blood-to-plasma concentration ratio (RB) of DUT was determined as described previously. […] The concentrations of DUT in the plasma sample were determined by the validated HPLC analysis.

[2] = Unbound fraction by rapid equilibrium dialysis, RLM; format: in vitro ADME, rat
Description: as §1

[3] = NADPH-dependent metabolism (disappearance) of DUT in human liver microsomes; format: in vitro ADME; conditions: HLM
Description: In vitro metabolism studies in RLM and HLM were conducted as previously reported with slight modifications. To investigate the NADPH-dependent metabolism (via phase I enzymes including CYPs) of DUT in RLM and HLM, the disappearance of DUT at various concentrations ranging from 1 to 100 μM in the presence of NADPH was determined in RLM and HLM. The substrate (DUT) concentration ([S]; μM) versus the initial metabolic rate (V; pmol/min/mg protein) data were interpreted based on the Michaelis–Menten kinetics, and relevant parameters were estimated by nonlinear regression analysis (GraphPad Prism ver. 5.01; GraphPad Software, San Diego, CA, USA) based on the following Michaelis–Menten equation: V = Vmax × [S]/Km + [S] where Vmax and Km are the maximal metabolic rate and Michaelis–Menten constant, respectively. The intrinsic metabolic clearance (CLint) was calculated by dividing Vmax by Km. The unbound Km (Km,u) was calculated as the Km multiplied by the unbound fraction in microsomes (fu,mic). The unbound CLint (CLint,u) was calculated as the CLint divided by the fu,mic.
To investigate the metabolic interaction potential between DUT and KET, the disappearance of DUT (5 μM) in RLM and HLM was determined under the absence and presence of KET at various concentrations ranging from 1 to 5000 nM. A microsomal reaction mixture was prepared as follows (total volume: 0.2 mL): 1 mM NADPH, 10 mM MgCl2, substrate (DUT), and inhibitor (KET), RLM or HLM (1 mg/mL), and 50 mM phosphate buffer. […] The unbound fractions of DUT in rat plasma, RLM, human plasma, and HLM were measured using a rapid equilibrium dialysis (RED) device (Thermo Fisher Scientific, Inc., Waltham, MA, USA) as described in a previous study. […] The fraction unbound was calculated as the ratio of the drug concentrations in the “buffer” chamber to those in the “sample” chamber. The blood-to-plasma concentration ratio (RB) of DUT was determined as described previously. […] The concentrations of DUT in the plasma sample were determined by the validated HPLC analysis.

[4] = Basic (simple static) model prediction of clinical DUT-KET interaction; set-up: species or system human; conditions: clinical prediction from HLM data, R = 1 + Imax,u / Ki
Description: Supplementary Materials: In Vitro and In Vivo
Assessment of Metabolic Drug Interaction Potential of Dutasteride with Ketoconazole
Table S1. Previous literatures on bioanalytical methods for DUT using HPLC system coupled with ultraviolet-visible (UV/Vis) and tandem mass (MS/MS) detector.
Detector Matrix Sample Sample Preparation Mobile Phase Conc. Range Validation Ref.
LC-MS/MS Human plasma 300 µL LLE Isocratic 0.1-25 ng/mL Full
LC-MS/MS Human plasma 500 µL LLE Gradient 0.1-25 ng/mL Full
LC-MS/MS Human plasma 500 µL SPE Gradient 1-100 ng/mL Full
LC-MS/MS Human plasma 500 µL SPE Isocratic 0.1-10 ng/mL Full
LC-MS/MS Human plasma 900 µL LLE Isocratic 0.5-50 ng/mL Full
LC-MS/MS Human plasma 1000 µL LLE Gradient 0.05-4 ng/mL Full
LC-MS/MS Human Serum 2000 µL LLE NR 0.025-2.5 ng/mL Partial
LC-MS/MS Human Urine 5000 µL SPE Gradient NR Partial
LC-MS/MS Rat plasma 100 µL LLE Isocratic 1-500 ng/mL Partial
LC-MS/MS Rat plasma 100 µL LLE Isocratic 5-400 ng/mL Partial
HPLC-UV Rat blood 100 µL Deproteinization Gradient NR Partial […]
where the R is the predicted ratio of the AUC of DUT in the presence and absence of KET, the Imax,u is the maximum unbound plasma concentration of KET, and the Ki is the unbound inhibition constant of KET determined in vitro. Since IC50 only was determined in this study, it was converted to Ki using the following equation for competitive inhibition. […]

[5] = Previous and preliminary rat studies of intravenous DUT; format: in vivo; conditions: rats, preliminary study
type-1 5AR = system: type-1 5AR; set-up: method as in PMID 16964191, PMID 16719800; conditions: previous in vitro studies; cited from earlier work
[6] = cited from earlier work

C[C@]12C=CC(=O)N[C@@H]1CC[C@@H]1[C@@H]2CC[C@]2(C)[C@@H](C(=O)Nc3cc(C(F)(F)F)ccc3C(F)(F)F)CC[C@@H]12 [DUT, Dutasteride]
fraction of unbound DUT, presence versus absence of KET ([1]; DUT and KET 5 μM, n = 5): no significant differences
fraction unbound at 5 μM ([1]; Sprague-Dawley, DUT 5 μM, RED device): 0.0115
fraction of unbound DUT, presence versus absence of KET ([2]; RLM, DUT and KET 5 μM, n = 5): no significant differences
fraction unbound at 5 μM ([2]; Sprague-Dawley, rat, rat liver microsomes, RLM 1 mg/mL, DUT 5 μM, RED device): 0.0856
Vmax ([3]; DUT 1 to 100 μM, NADPH): 47.7 ± 6.3 pmol/min/mg protein
Km ([3]; human, human liver microsomes, DUT 1 to 100 μM, NADPH): 51.6 ± 7.3 µM
microsomal CLint ([3]; human, human liver microsomes, Vmax divided by Km): 0.928 ± 0.069 µL/min/mg
R, predicted ratio of the AUC of DUT in the presence and absence of KET [4]: 2.88
renal excretion of DUT in the unchanged form [5]: less than 1 % of intravenously administered dose
more potent inhibition of type-1 5AR compared to finasteride (type-1 5AR): 45 fold
steady-state serum DUT concentration, median ([6]; healthy humans, 0.5 mg DUT once-daily for more than 6 months): 38 ng/mL
terminal half-life ([6]; humans, after reaching a steady state): approximately 5 weeks
unchanged DUT excreted in the urine ([6]; humans): trace amounts
